Drawing on ChEMBL document CHEMBL5344418, “Recent developments in antimalarial activities of 4-aminoquinoline derivatives” (Eur J Med Chem, 2023), this text covers CC50, EC50 and IC50 for 14 compounds.

Molecules are shown by their SMILES.

One assay has as its system HepG2. Nature of the assay: Cytotoxicity against human HepG2 cells assessed as cell growth inhibition measured after 72 hrs by MTT assay. The format is functional. (In general: Formazan colour is commonly taken as a measure of viable cells.)
In assay [1] the test system is Plasmodium falciparum. Briefly: Antimalarial activity against drug sensitive Plasmodium falciparum NF54 assessed as inhibition of parasite growth. The format is functional, organism-based.
For assay [2], the system named is Plasmodium falciparum. Nature of the assay: Antiplasmodial activity against Plasmodium falciparum 3D7 infected in human erythrocytes assessed as growth inhibition after 72 hrs by SYBR Gren-I fluorescent dye based method. The settings on record: 3D7, 72 h. The format is functional, organism-based.
Assay [3] concerns Plasmodium falciparum. Nature of the assay: Antimalarial activity against Plasmodium falciparum K1 assessed as inhibition of parasitic growth. The format is functional, organism-based.
Assay [4] deals with Plasmodium falciparum. Briefly: Antimalarial activity against chloroquine-resistant Plasmodium falciparum Dd2 assessed as inhibition of parasite growth. The format is functional, organism-based.
The subject of assay [5] is Plasmodium falciparum. Nature of the assay: Antimalarial activity against Plasmodium falciparum 3D7 assessed as inhibition of parasite growth incubated for 96 hrs. The format is functional, organism-based. The conditions noted are these: 3D7, 96 h.
The test system of assay [6] is Plasmodium falciparum. Briefly: Antiplasmodial activity against chloroquine-sensitive Plasmodium falciparum 3D7 infected in human erythrocyte incubated for 72 hrs by SYBR green I staining based fluorescence assay. The format is functional, organism-based. The conditions noted are these: 3D7, Erythrocyte.
Assay [7] relates to Plasmodium falciparum. Nature of the assay: Antiplasmodial activity against Plasmodium falciparum Dd2 infected in human Erythrocyte measured after 72 hrs by SYBR green fluorescence dye based microplate reader analysis. The format is functional, organism-based.
Assay [8] has as its system Plasmodium falciparum. Briefly: Antiplasmodial activity against Plasmodium falciparum K1 infected in human Erythrocyte measured after 72 hrs by SYBR green fluorescence dye based microplate reader analysis. The format is functional, organism-based.
Assay [9] deals with Plasmodium falciparum. Nature of the assay: Antimalarial activity against chloroquine-resistant Plasmodium falciparum K1 assessed as reduction in cell growth. The format is functional, organism-based.
The subject of assay [10] is Plasmodium falciparum. Nature of the assay: Antimalarial activity against CQ-resistant Plasmodium falciparum RKL9. The format is functional, organism-based.
Assay [11] concerns Plasmodium falciparum. Briefly: Antimalarial activity against Plasmodium falciparum 3D7 assessed as inhibition of parasite growth. The format is functional, organism-based.
Another assay relates to Plasmodium berghei. Nature of the assay: Antimalarial activity against liver stage Plasmodium berghei. The format is functional, organism-based.
In assay [12] the test system is Plasmodium falciparum. Nature of the assay: Antimalarial activity against chloroquine resistant Plasmodium falciparum FcB1/Colombia assessed as inhibition of parasite growth incubated for 24 hrs by liquid scintillation spectrometer analysis. The format is functional, organism-based.
Assay [13] concerns Plasmodium falciparum. Nature of the assay: Antimalarial activity against chloroquine-sensitive Plasmodium falciparum NF54 assessed as reduction in cell growth. The format is functional, organism-based.

Regarding `CC1(C)[C@@H]2CC=C(CC(=O)Nc3ccnc4cc(Cl)ccc34)[C@H]1C2`, in the assay with HepG2, the CC50 was 14.3 µM. In addition, the values for the EC50 with Plasmodium falciparum [1], in the assay on Plasmodium falciparum [2] and in the assay on Plasmodium falciparum [3] were 21.4 µM, 17.1 µM and 7.84 µM, respectively.
On to `O=C(O)C(Cc1c[nH]c2ccccc12)Nc1ccnc2cc(Cl)ccc12` (stereo not given), for which the 50% inhibitory concentration (IC50) with Plasmodium falciparum [4] was 5 µM; in the assay with Plasmodium falciparum [5] it was 8 µM.
For `CC(C)Cc1ccc(C(C)C(=O)NCCNc2ccnc3cc(Cl)ccc23)cc1` (stereo not given) the same measures were 0.201 µM and 0.125 µM.
Turning to `C[C@H]1[C@H](OC(=O)CCC(=O)OCCNc2ccnc3cc(Cl)ccc23)O[C@@H]2O[C@@]3(C)CC[C@H]4[C@H](C)CC[C@@H]1[C@@]24OO3`, the EC50 was found to be 0.0045 µM in the assay on Plasmodium falciparum [6], 0.0023 µM with Plasmodium falciparum [7] and 0.0017 µM in the assay on Plasmodium falciparum [8].
The corresponding values for `C#CCCCN(CCNc1ccnc2cc(Cl)ccc12)C(=O)CCC(=O)O[C@@H]1O[C@@H]2O[C@@]3(C)CC[C@H]4[C@H](C)CC[C@@H]([C@H]1C)[C@@]24OO3` are 0.0035 µM, 0.0016 µM and 0.0013 µM.
Regarding `C#Cc1ccc(-c2cn(CCNc3ccnc4cc(Cl)ccc34)nn2)cc1`, the IC50 in the assay with Plasmodium falciparum [9] was found to be 0.18 µM.
Turning to `O=C(O)CCCCCCCCCCCNc1ccnc2cc(Cl)ccc12`, the IC50 is 4 µM in the assay with Plasmodium falciparum [4] and 0.031 µM in the assay with Plasmodium falciparum [5].
With `COc1cc(/C=N/Nc2ccnc3cc(Cl)ccc23)ccc1O`, the IC50 in the assay on Plasmodium falciparum [10] and in the assay on Plasmodium falciparum [11] was 0.009 µM in each case.
As to `O=C(O)c1cn(C2CC2)c2cc(N3CCNCC3)c(F)cc2c1=O` [CIPROFLOXACIN], in the assay on Plasmodium berghei, the IC50 is 0.06 µM.
Regarding `O=[N+]([O-])c1ccc(/C=N/Nc2ccnc3cc(Cl)ccc23)cc1`, the IC50 in the assay on Plasmodium falciparum [10] and with Plasmodium falciparum [11] was 0.009 µM each time.
Regarding `CCOP(=O)(CCCN(O)C(=O)CCC(=O)N1CCN(c2ccnc3cc(Cl)ccc23)CC1)OCC`, the IC50 in the assay with Plasmodium falciparum [12] turned out to be 2.7 µM.
As to `C#Cc1ccc(-c2cn(CCNc3ccnc4cc(Cl)ccc34)nn2)c(F)c1`, the IC50 was found to be 0.21 µM in the assay with Plasmodium falciparum [9] and 0.19 µM in the assay with Plasmodium falciparum [13].
Turning to `CC1(C)[C@@H]2CC=C(CC(=O)Nc3ccnc4ccccc34)[C@H]1C2`, in the assay on HepG2, the CC50 worked out at 3.89 µM. In addition, the EC50 was 23.4 µM in the assay with Plasmodium falciparum [1], 26.4 µM with Plasmodium falciparum [2] and 13.9 µM in the assay with Plasmodium falciparum [3].
For the compound `CCOP(=O)(CCCN(O)C(=O)CCC(=O)NCCNc1ccnc2cc(Cl)ccc12)OCC`, the IC50 in the assay with Plasmodium falciparum [12] came to 4.2 µM.

By CC50 is commonly meant the concentration giving 50% cytotoxicity. As usually defined, the EC50 is the concentration that produces a half-maximal response. Usually IC50 stands for the concentration needed to halve the response being measured.
